In publication PMC7565988, “Insight into the Anticancer Activity of Copper(II) 5-Methylenetrimethylammonium-Thiosemicarbazonates and Their Interaction with Organic Cation Transporters” (Biomolecules, 2020):
Read-outs that look alike come from different tables or passages of the source.

Assays:
[1] = parameters: method as in doi:10.1002/ejic.201200360; details: pure water; cited from earlier work
[2] = parameters: method as in doi:10.1002/ejic.201200360; details: pH 7.4; cited from earlier work
OCT3 = target: T1, OCT3 (Homo sapiens, UniProt O75751); parameters: method as in PMID 14576340; details: reference inhibitor; cited from earlier work
T1 construct: expressed in transfected cells
T1 sequence (O75751 1-556): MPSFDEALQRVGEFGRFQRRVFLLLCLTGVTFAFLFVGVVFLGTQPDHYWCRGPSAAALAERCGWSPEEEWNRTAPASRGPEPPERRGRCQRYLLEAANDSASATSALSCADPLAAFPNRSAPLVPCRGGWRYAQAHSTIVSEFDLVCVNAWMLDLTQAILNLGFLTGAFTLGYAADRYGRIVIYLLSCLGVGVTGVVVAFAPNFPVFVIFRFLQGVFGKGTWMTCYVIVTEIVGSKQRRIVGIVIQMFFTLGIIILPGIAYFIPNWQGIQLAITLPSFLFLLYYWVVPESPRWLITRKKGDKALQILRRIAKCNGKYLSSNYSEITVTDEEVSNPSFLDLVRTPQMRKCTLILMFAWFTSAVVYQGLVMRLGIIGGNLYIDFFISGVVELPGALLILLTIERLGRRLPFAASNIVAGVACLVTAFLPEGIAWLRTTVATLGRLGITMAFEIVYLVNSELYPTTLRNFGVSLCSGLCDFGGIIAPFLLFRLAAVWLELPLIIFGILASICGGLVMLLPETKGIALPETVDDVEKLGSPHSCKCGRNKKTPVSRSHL

OCT2 = target: T2, OCT2 (Homo sapiens, UniProt O15244); parameters: method as in PMID 14576340; details: reference inhibitor; cited from earlier work
T2 construct: expressed in transfected cells
T2 sequence (O15244 1-555): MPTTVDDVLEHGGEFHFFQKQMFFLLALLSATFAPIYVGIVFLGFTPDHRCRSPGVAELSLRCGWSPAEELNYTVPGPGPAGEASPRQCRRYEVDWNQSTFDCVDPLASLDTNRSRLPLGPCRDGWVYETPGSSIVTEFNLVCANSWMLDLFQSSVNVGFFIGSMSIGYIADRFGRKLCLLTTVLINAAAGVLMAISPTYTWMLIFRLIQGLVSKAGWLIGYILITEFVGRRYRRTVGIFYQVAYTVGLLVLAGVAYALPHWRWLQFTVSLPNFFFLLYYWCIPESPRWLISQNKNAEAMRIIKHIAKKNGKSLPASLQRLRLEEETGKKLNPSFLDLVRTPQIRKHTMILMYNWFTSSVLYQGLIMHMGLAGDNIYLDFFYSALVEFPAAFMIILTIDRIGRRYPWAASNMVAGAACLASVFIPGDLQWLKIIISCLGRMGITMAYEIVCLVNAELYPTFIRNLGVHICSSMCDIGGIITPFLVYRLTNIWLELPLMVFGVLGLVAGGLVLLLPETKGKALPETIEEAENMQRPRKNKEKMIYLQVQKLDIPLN

OCT1 = target: T3, OCT1 (Homo sapiens, UniProt O15245); parameters: method as in PMID 14576340; details: reference inhibitor; cited from earlier work
T3 construct: expressed in transfected cells
T3 sequence (O15245 1-554): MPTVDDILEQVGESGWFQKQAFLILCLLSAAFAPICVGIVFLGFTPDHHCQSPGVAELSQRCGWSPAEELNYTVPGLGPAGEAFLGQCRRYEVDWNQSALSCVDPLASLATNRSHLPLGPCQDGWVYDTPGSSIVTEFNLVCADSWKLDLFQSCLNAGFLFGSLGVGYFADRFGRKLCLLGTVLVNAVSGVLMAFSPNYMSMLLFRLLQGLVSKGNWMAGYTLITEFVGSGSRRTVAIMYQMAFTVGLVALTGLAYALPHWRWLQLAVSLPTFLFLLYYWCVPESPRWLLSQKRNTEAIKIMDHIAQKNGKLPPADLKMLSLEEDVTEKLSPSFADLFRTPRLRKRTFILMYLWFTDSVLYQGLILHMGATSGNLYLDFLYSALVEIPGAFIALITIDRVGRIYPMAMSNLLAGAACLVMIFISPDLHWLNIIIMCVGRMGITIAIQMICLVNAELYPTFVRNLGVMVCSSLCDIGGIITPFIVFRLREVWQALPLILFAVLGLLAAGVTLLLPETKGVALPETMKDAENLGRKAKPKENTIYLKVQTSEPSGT

[3] = test system: Colo 205 doxorubicin-sensitive colonic adenocarcinoma cells; assay: MTT cytotoxicity (24 h) / antiproliferation (72 h) assay; assay type: cell-based, human; details: read-out: Colo205 IC50
Experimental: Human doxorubicin-sensitive Colo 205 (ATCC-CCL-222) and multidrug resistant Colo 320 (overexpressing ABCB1 (MDR1)-LRP (ATCC-CCL-220.1)) colonic adenocarcinoma cell lines were purchased from LGC Promochem, Teddington, UK. The cells were cultured in RPMI 1640 medium supplemented with 10% heat-inactivated fetal bovine serum, 2 mM L-glutamine, 1 mM Na-pyruvate and 100 mM Hepes. The cell lines were incubated at 37 °C, in a 5% CO2, 95% air atmosphere. The semi-adherent human colon cancer cells were detached with Trypsin-Versene (EDTA) solution for 5 min at 37 °C.
(§1) In the study non-cancerous human embryonic lung fibroblast MRC-5, human colonic adenocarcinoma cell line (doxorubicin-sensitive Colo 205, multidrug resistant Colo 320) and neuroblastoma cell line SH-SY5Y were used to determine the effect of compounds on cell growth. The effects of increasing concentrations of compounds on cell growth were tested in 96-well flat-bottomed microtiter plates. The compounds were diluted in a volume of 100 μL of medium.
In case of the colonic adenocarcinoma cells, the two-fold serial dilutions of compounds were prepared in 100 μL of RPMI 1640, horizontally. The semi-adherent colonic adenocarcinoma cells were treated with Trypsin–Versene (EDTA) solution. The cells were adjusted to a density of 2 × 10^4 cells in 100 μL of RPMI 1640 medium, and were added to each well, with the exception of the medium control wells. The final volume of the wells containing compounds and cells was 200 μL.
(§2) The culture plates were incubated at 37 °C for 24 h; at the end of the incubation period, 20 μL of MTT (thiazolyl blue tetrazolium bromide, Sigma) solution (from a stock solution of 5 mg/mL) were added to each well. After incubation at 37 °C for 4 h, 100 μL of sodium dodecyl sulfate (SDS) (Sigma) solution (10% in 0.01 M HCI) were added to each well and the plates were further incubated at 37 °C overnight. Cell growth was determined by measuring the optical density (OD) at 540/630 nm with Multiscan EX ELISA reader (Thermo Labsystems, Cheshire, WA, USA). […] Curves were fitted by GraphPad Prism software using the sigmoidal dose-response model (comparing variable and fixed slopes).
(§3) The method is similar to the one described in the assay for cytotoxic effect. […] The culture plates were incubated at 37 °C for 72 h and after the incubation time, the plates were stained with MTT according to the previous experimental protocol described for the cytotoxicity assay.

[4] = test system: SH-SY5Y neuroblastoma cells; assay: as above; assay type: cell-based, human; details: MTT
Experimental: SH-SY5Y (ATCC® CRL-2266™) neuroblastoma cell line was purchased from LGC Promochem, Teddington, UK. The cell line was cultured in Eagle’s Minimal Essential Medium (EMEM, containing 4.5 g/L glucose) supplemented with a non-essential amino acid mixture, a selection of vitamins and 10% heat-inactivated foetal bovine serum. The cell line was incubated at 37 °C, in a 5% CO2, 95% air atmosphere.
as §1
The adherent human embryonal lung fibroblast and SH-SY5Y neuroblastoma cells were cultured in 96-well flat-bottomed microtiter plates, using EMEM supplemented with 10% heat-inactivated foetal bovine serum. The density of the cells was adjusted to 2 × 10^4 cells in 100 μL per well, the cells were seeded for 24 h at 37 °C, 5% CO2, then the medium was removed from the plates containing the cells, and the dilutions of compounds previously made in a separate plate were added to the cells in 200 μL.
as §2, §3

In the case of `NC(=S)N/N=C/c1ccccc1O` [STSC, salicylaldehyde thiosemicarbazone], the “pKa of the phenolic OH moiety” value [1] is given as 8.88 and the logD7.4 [2] is given as “+1.74”.
For `CCN1/C(=C/c2ccc3ccccc3[n+]2CC)C=Cc2ccccc21` [D-22, decynium-22], the IC50 (OCT3) is given as 0.09 ± 0.01 µM, the IC50 (OCT2) is given as 1.13 ± 0.19 µM and the IC50 (OCT1) is given as 0.98 ± 0.31 µM.
With `N.N.[Cl][Pt][Cl]` [Cisplatin, reference compound] the IC50 ([3]; 24 h exposure) was 68.8 ± 5.08 µM, the IC50 ([3]; 72 h exposure) was 8.14 ± 1.59 µM and the IC50 ([4]; 24 h exposure) was 26 ± 2.38 µM. For the same compound, the IC50 ([4]; 72 h exposure) was 0.65 ± 0.08 µM.
